From patent US11945824B2, “Heterocyclic compounds as anti-viral agents” (priority 2020, dated 2024) come the findings set out here.

The test system of test [1] is Human RSV-A (“Long” strain). Nature of the test: RSV-A assay (CPE, ATPlite readout in Hep-2 cells). The class given is cell-based. The note with it: human respiratory syncytial virus, 120 h; Hep-2 cells, MOI 0.1, 5-day incubation, ATPlite; read-out: Human RSV-A (“Long” strain) EC50. The text has this:
Hep-2 cells, (originally derived from tumors grown in irradiated-cortisonised weanling rats that had been injected with epidermoid carcinoma tissue from a person's larynx, but later found to be indistinguishable from HeLa cells by PCR DNA analysis), were used for the culturing of genotype A, “Long” strain RSV. Flasks were inoculated with RSV and viral stocks were collected once cytopathic effect (CPE) was greater than 90%. Viral stocks in 25% sucrose media were snap frozen using liquid nitrogen to increase viral stability. Viral stock titers were quantified by tissue culture infectious dose 50% (TCID50) using 8,000 cells per well and 3-fold viral dilutions across a 96-well plate, cultured for 4 days. Viral stock titers were also quantified by a plaque forming unit assay, as described elsewhere.
Following extensive parameter testing, the final assay is run as follows: Hep-2 cells are seeded into the inner 60 wells of a 96-well plate at 8,000 cells per well in a volume of 50 μL using Growth Media (DMEM without phenol red, 1% L-Glut, 1% Penn/Strep, 1% nonessential amino acids, 10% heat-inactivated FBS). 2-fold serial dilutions of control and test compounds are added to the wells in duplicate in a total volume of 25 μL. Viral stock is then added to the wells at a multiplicity of infection (MOI) of 0.1 in a volume of 25 μL, bringing the total volume of each well to 100 μL. The MOI is calculated using the PFU/mL, or TCID50 if unavailable. Each 96-well plate has a control column of 6 wells with cells and virus but no compound (negative control, max CPE), a column with cells but no compound or virus (positive control, minimum CPE), and a column with no cells or virus or compound (background plate/reagent control). The control wells with cells but no virus are given an additional 25 μL of growth media containing an equal quantity of sucrose as those wells receiving the viral stock in order to keep consistent in media and volume conditions. The outer wells of the plate are filled with 125 μL of moat media (DMEM, 1% Penn/Strep) to act as a thermal and evaporative moat around the test wells. Following a 5-day incubation period, the plates are read using ATPlite (50 uL added per well), which quantifies the amount of ATP (a measure of cell health) present in each well. Assay plates are read using the Envision luminometer. […] EC50 ranges are as follows: A<0.2 μM; B≥0.2 μM.
(In ATP-based viability assays light output follows the ATP content of the culture.)

Test [2] concerns rHMPV-GFP (recombinant HMPV CAN97-83, MPV-GFP1). Nature of the test: HMPV antiviral assay (eGFP fluorescence in Vero E6 cells). It counts as cell-based. The following applies: human metapneumovirus, Vero C1008, 120 h, read-out: rHMPV-GFP EC50. How it is done:
Method for HMPV Antiviral Assay
HMPV antiviral activity was evaluated using a recombinant version of HMPV CAN97-83 engineered to contain the coding sequence for enhanced green fluorescence protein (eGFP) in the 3′ end of the virus genome (MPV-GFP1, ViraTree). Vero E6 cells (ATCC #CCL-7) were seeded at a density of 12,000 cells/100 μL/well into 96-well cell plates (VENDOR) one day prior to the assay. On the day of screening, the cell culture medium was aspirated from the wells and cells were washed twice with serum-free Eagle's Modified Essential Medium (EMEM, ATCC #) containing 1% penicillin-streptomycin (Invitrogen) (SF-EMEM). Cell washes were performed by dispensing 100 μL SF-EMEM per well and immediately aspirating the wash medium from the well. Following the second wash step, serum-free OptiMEM (Invitrogen, Cat No.) (SF-OptiMEM) containing 0.5 μg/mL TPCK-Trypsin (VENDOR) and 1% penicillin-streptomycin was added to the cells at 50 μL/well. Compounds were added into the 96-well plates using a JANUS automated liquid handling system (VENDOR). Compounds were initially diluted 1:50 into an intermediate 96-well plate containing SF-OptiMEM prior to transfer to the assay plate (25 μL/well). Each of the test compounds were tested in duplicate wells at final concentrations starting from 8 μM or 2 μM using ½ stepwise dilutions for a total of 8 points. Virus infection was performed by preparing a working stock of MPV-GFP1 at a multiplicity of infection (MOI) equal to 0.05/25 μL and aliquoting 25 μL of virus inoculum to the compound and positive control wells. SF-OptiMEM was added (25 μL/well) to the appropriate wells to serve as a virus-free negative control for the assay. The final DMSO concentration of all wells is 0.5%. Plates were incubated at 32° C., 5% CO2 for 5 days. After 5 days incubation, eGFP fluorescence intensity was measured at […] using a Spectramax i3X plate reader (VENDOR).
Percent viral inhibition was calculated using the following equation: y=[[…](XQ/XP)]×100 Where XQ is the fluorescence intensity measured in a well containing recombinant MPV-GFP1-infected, compound-treated cells and XP is the average fluorescence intensity measured in the wells containing untreated cells infected with recombinant virus. EC50 values were then calculated by non-linear regression using a four-parameter curve logistic equation. The curve fit model employed was XLFit Dose Response One Site Model 200: y=(A+(B/(1+((x/C)^D)))) Where A is the minimum y value, B is the maximum y value, C is the log EC50 value, and D is the slope factor. The EC50 for each compound is listed in Table 2 and EC50 ranges are as follows: A<0.2 μM; B≥0.2 μM.

With `COc1cc(C(=O)NC[C@](O)(c2cc3c(c(-c4ccc(F)cc4)n2)OC[C@]3(C)n2cnnc2)C2CC2)ccc1OC1CC1` [Example 15, 4-cyclopropoxy-N-((S)-2-cyclopropyl-2-((R)-7-(4-fluorophenyl)-3-methyl-3-(4H-1,2,4-triazol-4-yl)-2,3-dihydrofuro[2,3-c]pyridin-5-yl)-2-hydroxyethyl)-3-methoxybenzamide], the EC50 in test [1] is less than 200 nM; in test [2], greater than 200 nM.
For `COc1cc(C(=O)NC[C@](O)(c2cc3c(c(-c4ccc(F)cc4)n2)OC[C@]3(C)n2cnnc2)C2CC2)cc2cccnc12` [Example 16, N-((S)-2-cyclopropyl-2-((R)-7-(4-fluorophenyl)-3-methyl-3-(4H-1,2,4-triazol-4-yl)-2,3-dihydrofuro[2,3-c]pyridin-5-yl)-2-hydroxyethyl)-8-methoxyquinoline-6-carboxamide], the EC50 in test [1] is less than 200 nM; in test [2], greater than 200 nM.
`COc1cc(C(=O)NC[C@](O)(c2cc3c(c(-c4ccc(F)cc4)n2)OC[C@]3(C)n2ccnn2)C2CC2)ccc1OC1CC1` [Example 17, 4-cyclopropoxy-N-((S)-2-cyclopropyl-2-((R)-7-(4-fluorophenyl)-3-methyl-3-(1H-1,2,3-triazol-1-yl)-2,3-dihydrofuro[2,3-c]pyridin-5-yl)-2-hydroxyethyl)-3-methoxybenzamide]: the EC50 in test [1] and in test [2] was less than 200 nM throughout.
As to `COc1cc(C(=O)NC[C@](O)(c2cc3c(c(-c4ccc(F)cc4)n2)OC[C@]3(C)c2cnn[nH]2)C(F)(F)F)cc2cccnc12` [Example 18, 8-methoxy-N-((S)-3,3,3-trifluoro-2-((S)-7-(4-fluorophenyl)-3-methyl-3-(1H-1,2,3-triazol-5-yl)-2,3-dihydrofuro[2,3-c]pyridin-5-yl)-2-hydroxypropyl)quinoline-6-carboxamide], the EC50 in test [1] was less than 200 nM; in test [2] it was greater than 200 nM.
Regarding `COc1cc(C(=O)NC[C@](O)(c2cc3c(c(-c4ccc(F)cc4)n2)OC[C@]3(C)c2ncc[nH]2)C(F)(F)F)cc2cccnc12` [Example 20, 8-methoxy-N-((S)-3,3,3-trifluoro-2-((S)-7-(4-fluorophenyl)-3-(1H-imidazol-2-yl)-3-methyl-2,3-dihydrofuro[2,3-c]pyridin-5-yl)-2-hydroxypropyl)quinoline-6-carboxamide], the EC50 in test [1] was less than 200 nM; in test [2], greater than 200 nM.
`C[C@]1(c2nc3ccccc3[nH]2)COc2c1cc([C@@](O)(CNC(=O)c1cc(OC3CC3)c3ncccc3c1)C(F)(F)F)nc2-c1ccc(F)cc1` [Example 21, N-((S)-2-((S)-3-(1H-benzo[d]imidazol-2-yl)-7-(4-fluorophenyl)-3-methyl-2,3-dihydrofuro[2,3-c]pyridin-5-yl)-3,3,3-trifluoro-2-hydroxypropyl)-8-cyclopropoxyquinoline-6-carboxamide]: the values for the EC50 in test [1] and in test [2] were less than 200 nM and greater than 200 nM, respectively.
For the compound `C[C@]1(c2cc[nH]n2)COc2c1cc([C@@](O)(CNC(=O)c1cc(OC3CC3)c3ncccc3c1)C(F)(F)F)nc2-c1ccc(F)cc1` [Example 22, 8-cyclopropoxy-N-((S)-3,3,3-trifluoro-2-((S)-7-(4-fluorophenyl)-3-methyl-3-(1H-pyrazol-3-yl)-2,3-dihydrofuro[2,3-c]pyridin-5-yl)-2-hydroxypropyl)quinoline-6-carboxamide], the EC50 in test [1] is less than 200 nM; in test [2], greater than 200 nM.
The matching figures for `COc1cc(C(=O)NC[C@](O)(c2cc3c(c(-c4ccc(F)cc4)n2)OC[C@]3(C)Cc2ncc[nH]2)C(F)(F)F)cc2cccnc12` [Example 23, N-((S)-2-((R)-3-((1H-imidazol-2-yl)methyl)-7-(4-fluorophenyl)-3-methyl-2,3-dihydrofuro[2,3-c]pyridin-5-yl)-3,3,3-trifluoro-2-hydroxypropyl)-8-methoxyquinoline-6-carboxamide]: less than 200 nM and less than 200 nM.

In general, EC50 refers to the concentration that produces a half-maximal response.
